Reference: patent US9238034B2, “FN14 antagonists and therapeutic uses thereof” (THE TRANSLATIONAL GENOMICS RESEARCH INSTITUTE, priority 2013, dated 2016)
Where two headings read alike, the source gives them in different places.

Tests used:
[1] = molecular target: T1, Fn14-TWEAK binding (Homo sapiens, UniProt Q9NP84); assay: Double sandwich ELISA small molecule screening of TWEAK binding to captured Fn14-Fc
T1 construct: the human Fc fragment-tagged Fn14 extracellular domain (R&D Systems) was captured; purchased R&D Systems (Fn14-Fc); Peprotech (recombinant TWEAK)
T1 sequence (Q9NP84 28-80 limits assumed): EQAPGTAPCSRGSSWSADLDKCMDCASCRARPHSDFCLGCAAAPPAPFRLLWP
Procedure: Double Sandwich ELISA. sTWEAK and sTWEAK variant proteins were synthesized as described above. The expression level of each IVTT synthesized sTWEAK protein was analyzed by western blot analysis and used in approximately equal amounts in the ELISA. To assay the binding of wild type sTWEAK and sTWEAK variants to Fn14, the human Fc fragment-tagged Fn14 extracellular domain (R&D Systems) was captured in an Immuno 96-microwell white plate by adding 100 μL of 0.025 μg/mL Fn14-Fc to wells coated with goat anti-human Fcγ fragment specific monoclonal antibody. After capture, the wells were washed 3× with Dulbecco's Phosphate Buffered Saline (DPBS) containing 0.05% Tween-20. Unbound sites were blocked by addition of 100 μL of blocking solution containing 0.05% Tween-20, 1% BSA, and 3% normal goat serum (NGS) in DPBS for 1 hr at room temperature. 0.01 μL of sTWEAK or sTWEAK variant made with the human IVTT kit or 2 μL of sTWEAK or sTWEAK variant made with the rabbit IVTT kit was diluted in 100 μL of sample diluent (DPBS+1% BSA+0.005% Tween-20) and then added to the wells for 2 hr followed by addition of 100 μL of 50 ng/mL biotinylated TWEAK detection antibody (R&D Systems) in sample diluent. Following incubation for additional 2 hr at room temperature, wells were washed 3× with DPBS containing 0.05% Tween-20 and bound biotinylated TWEAK antibody was detected by incubation with an HRP-conjugated streptavidin. The total luminescent signal was obtained using Femto ELISA kit (Pierce Biochemical) and compared to the standard curve signal obtained from the binding of 0-4000 pg/mL recombinant TWEAK (Peprotech inc) to Fn14-Fc. Using 5-parameter logistic curve fitting for standard curve analysis (Sigmaplot 11.0, SyStat Software Inc.), binding of sTWEAK or TWEAK variant to Fn14-Fc was determined. The data represents that observed for at least four replicate assays.
The small molecule screening was performed using the ELISA assay described above with minor modifications. Briefly, after capturing Fn14-Fc in the microwell plate, 80 μl of drug solution in sample diluent was added to desired wells and incubated for 2 hrs at room temperature. Subsequently, 20 μL of 2500 pg/mL (5×) TWEAK was added to each well to achieve final TWEAK concentration of 500 pg/mL and incubated for additional 2 hr at room temperature. Bound TWEAK was detected as described in the protocol above. All small molecule inhibitors were screened at 25 μM final concentration (final DMSO concentration of 0.125%) in duplicate. Cyclohexamide, a non-specific small molecule, at 25 μM concentration was used as negative control. The anti-Fn14 antibody ITEM-4, added at 2.5 μg/mL, was used as a positive control for complete blockade of TWEAK binding. Reduction in TWEAK binding due to compound addition or controls was calculated by using standard curve (Separate standard curve was obtained for every screening plate).

[2] = test system: T98G glioma cells; assay: Cell migration assay, modified Boyden chamber, TWEAK induced; format: cell-based, human; conditions: 10 μM, 5 hours
Procedure: Cell Migration Assay. The effect of pharmacological inhibition of TWEAK/Fn14 signaling on glioma cell migration was analyzed using a modified Boyden chamber (Neuroprobe, Cabin John, Md.) as described previously (Lamszus, K., et al. (1998) Journal international du cancer 75, 19-28; Brockmann, M. A., et al. (2003) Neurosurgery 52, 1391-1399). Each well contains a […] pore size Nucleopore filter that had been coated with 50 μg/mL PureCol® (Bovine Collagen) (Advanced Biomatrix, Poway, Calif.). T98G glioma cells were treated with selected drug compound for 1 hr and then seeded at 4.8×10^4 cells in 100 μL of DMEM with 0.1% bovine serum assay medium to the top well of the chamber. TWEAK was added to the lower wells of the chamber using DMEM with 0.1% bovine serum albumin as assay medium. After incubation for 5 hours at 37° C., nonmigrated cells were scraped off the upper side of the filter, and filters were stained with 4′,6-diamidino-2-phenylindole (DAPI). Nuclei of migrated cells were counted in 5 high-power fields (HPF) with a 20× objective. Values were assessed in triplicate.

[3] = molecular target: T2, Fn14 (Homo sapiens, UniProt Q9NP84); assay: Surface Plasmon Resonance assay, Fn14-Fc sensor surface; format: binding; conditions: Fn14 surface, SPR, 25 degrees Celsius
T2 construct: the human Fc fragment-tagged Fn14 extracellular domain (R&D Systems) was captured
T2 sequence (Q9NP84 28-80 limits assumed): T1 sequence (Q9NP84 28-80 limits assumed)
Procedure: Surface Plasmon Resonance (SPR) Assay. The binding affinity of at least one of the compounds (e.g., L524-0366) to TWEAK and Fn14-Fx was determined using a BIAcore T100 optical biosensor (GE Healthcare) at 25 degrees Celsius at the Arizona Proteomics Consortium. Recombinant human TWEAK (20 μg/mL in 10 mM HEPES pH 7.4, 150 mM NaCl, 3 mM EDTA, 0.05% Tween 20) or recombinant human Fn14-Fc (20 μg/mL in 10 mM NaOAc pH 4.0) were covalently coupled to separate flow cells on a BIAcore CM5 sensor chip using standard amine coupling chemistry as per manufacturer's protocol. Final immobilization levels were 6000 Response Units (RU) for TWEAK and 13,000 RU for FN14-Fc. The first flow path of the chip was treated with the same coupling and blocking reagents without protein and was used as a reference for each binding cycle. Functionality of the TWEAK and the Fn14-Fc sensor surfaces were verified by injecting Fn14-Fc and TWEAK over them respectively. Serial dilutions of L524-0366 or cycloheximide (control) from 0 to 50 μM were made in running buffer (10 mM HEPES pH 7.4, 150 mM NaCl, 3 mM EDTA, 1% DMSO). […] Equilibrium dissociation constants for the small molecules were calculated by fitting the double reference subtracted data to Req=((CRmax)/(KD+C))+RI, where RI is the bulk refractive index contribution.

inhibition at 25 µM ([1]; Table 4, second screening iteration, 25 μM, average of duplicate, read-out: % Reduction in TWEAK Binding, Average): 16.9% | inhibition at 25 µM ([1]; Table 4, second screening iteration, 25 μM, replicate 1, read-out: % Reduction in TWEAK Binding, Data 1): 18.8% | inhibition at 25 µM ([1]; Table 4, second screening iteration, 25 μM, replicate 2, read-out: % Reduction in TWEAK Binding, Data 2): 14.9% | inhibition at 25 µM ([1]; Table 5, 25 μM, average of duplicate, read-out: % Reduction in TWEAK Binding, Average): 16.9% | inhibition at 25 µM ([1]; Table 5, 25 μM, replicate 1, read-out: % Reduction in TWEAK Binding, Data 1): 18.8% | inhibition at 25 µM ([1]; Table 5, 25 μM, replicate 2, read-out: % Reduction in TWEAK Binding, Data 2): 14.9% | Kd [3]: 7.12 µM
Compound: O=C(c1cn(-c2cccc(Cl)c2)nn1)N1CCSCC1 [Compound L524-0366]
TWEAK-induced T98G cell migration [2]: completely suppressed
